biological target: recombinant full length HPK-1 enzyme (Homo sapiens (Human), UniProt Q92918); assay: HPK-1 biochemical enzyme assay (ADP-Glo kinase inhibition); conditions: recombinant full length HPK-1 6.8 nM, 10 μM ATP, 12.5 μM MBP, 30 mins at 25° C.
Method in brief: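 ADP-Glo readout of ADP formed after a 30 min, 25° C. reaction of 6.8 nM full-length HPK-1 with swine myelin basic protein (12.5 μM) and ATP (10 μM) in Tris pH 7.4 buffer with MgCl2, DTT and BSA. Ten compound concentrations tested; percent inhibition set against vehicle (0%) and no-enzyme (100%) controls gave IC50.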

Sequence of recombinant full length HPK-1 enzyme (Q92918 whole entry, species assumed): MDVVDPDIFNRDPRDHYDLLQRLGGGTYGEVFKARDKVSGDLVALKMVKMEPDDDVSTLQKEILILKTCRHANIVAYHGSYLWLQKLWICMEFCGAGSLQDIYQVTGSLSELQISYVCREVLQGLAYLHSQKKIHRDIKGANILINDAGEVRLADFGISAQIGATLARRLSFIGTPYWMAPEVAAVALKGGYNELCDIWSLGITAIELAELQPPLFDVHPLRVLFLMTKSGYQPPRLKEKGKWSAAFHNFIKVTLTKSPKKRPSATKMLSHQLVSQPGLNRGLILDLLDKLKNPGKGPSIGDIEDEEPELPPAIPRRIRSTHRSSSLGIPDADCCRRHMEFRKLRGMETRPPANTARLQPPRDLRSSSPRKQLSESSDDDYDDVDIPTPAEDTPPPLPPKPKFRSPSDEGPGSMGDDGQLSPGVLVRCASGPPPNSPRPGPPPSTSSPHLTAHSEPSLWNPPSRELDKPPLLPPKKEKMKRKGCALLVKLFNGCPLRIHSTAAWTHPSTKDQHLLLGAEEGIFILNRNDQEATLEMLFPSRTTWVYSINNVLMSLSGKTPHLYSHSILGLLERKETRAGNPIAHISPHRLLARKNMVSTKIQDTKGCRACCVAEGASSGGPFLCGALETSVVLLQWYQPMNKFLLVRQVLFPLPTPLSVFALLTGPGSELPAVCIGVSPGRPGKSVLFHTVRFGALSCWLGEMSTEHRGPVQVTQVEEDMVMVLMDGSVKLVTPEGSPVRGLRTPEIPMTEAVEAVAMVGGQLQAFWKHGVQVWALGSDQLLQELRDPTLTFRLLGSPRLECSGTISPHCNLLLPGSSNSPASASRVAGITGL

`Cc1c(Nc2cc[nH]c(=O)c2C(=O)Nc2ccc(N3CCC(N4CCN(C(C)C)CC4)CC3)c(F)c2)cnc2c1NCC(C)O2` (stereo not drawn) [Example 326, 4-((3,8-dimethyl-2,3-dihydro-1H-pyrido[2,3-b][1,4]oxazin-7-yl)amino)-N-(3-fluoro-4-(4-(4-isopropylpiperazin-1-yl)piperidin-1-yl)phenyl)-2-oxo-1,2-dihydropyridine-3-carboxamide] and `Cc1c(Nc2cc[nH]c(=O)c2C(=O)Nc2ccc(N3CCN(C(=O)C(C)C)CC3)cc2)cnc2c1NCC(C)O2` (stereo not drawn) [Example 335, 4-((3,8-dimethyl-2,3-dihydro-1H-pyrido[2,3-b][1,4]oxazin-7-yl)amino)-N-(4-(4-isobutyrylpiperazin-1-yl)phenyl)-2-oxo-1,2-dihydropyridine-3-carboxamide] cannot be ordered by IC50: no more than 10 nM for the first, 10 to 100 nM for the second.

`Cc1c(Nc2cc[nH]c(=O)c2C(=O)Nc2ccc(N3CCN4CCOC[C@@H]4C3)cc2)cnc2c1NCCO2` [Example 327, (S)-N-(4-(hexahydropyrazino[2,1-c][1,4]oxazin-8(1H)-yl)phenyl)-4-((8-methyl-2,3-dihydro-1H-pyrido[2,3-b][1,4]oxazin-7-yl)amino)-2-oxo-1,2-dihydropyridine-3-carboxamide] and `Cc1c(Nc2cc[nH]c(=O)c2C(=O)Nc2ccc(N3CCN4CCC[C@H]4C3)cc2)cnc2c1NCCO2` [Example 328, (S)-N-(4-(hexahydropyrrolo[1,2-a]pyrazin-2(1H)-yl)phenyl)-4-((8-methyl-2,3-dihydro-1H-pyrido[2,3-b][1,4]oxazin-7-yl)amino)-2-oxo-1,2-dihydropyridine-3-carboxamide] cannot be ordered by IC50: no more than 10 nM for the first, no more than 10 nM for the second.

`Cc1c(Nc2cc[nH]c(=O)c2C(=O)Nc2ccc(N3CCN4CCC[C@@H]4C3)cc2)cnc2c1NCCO2` [Example 329, (R)-N-(4-(hexahydropyrrolo[1,2-a]pyrazin-2(1H)-yl)phenyl)-4-((8-methyl-2,3-dihydro-1H-pyrido[2,3-b][1,4]oxazin-7-yl)amino)-2-oxo-1,2-dihydropyridine-3-carboxamide] and `Cc1c(Nc2cc[nH]c(=O)c2C(=O)Nc2ccc(N3CCN(C(=O)C4CC4)CC3)cc2)cnc2c1NCCO2` [Example 332, N-(4-(4-(cyclopropanecarbonyl)piperazin-1-yl)phenyl)-4-((8-methyl-2,3-dihydro-1H-pyrido[2,3-b][1,4]oxazin-7-yl)amino)-2-oxo-1,2-dihydropyridine-3-carboxamide] cannot be ordered by IC50: no more than 10 nM for the first, no more than 10 nM for the second.

Compared with `Cc1c(Nc2cc[nH]c(=O)c2C(=O)Nc2ccc(C3CCCCC3)cc2)cnc2c1NCCO2` [Example 330, N-(4-cyclohexylphenyl)-4-((8-methyl-2,3-dihydro-1H-pyrido[2,3-b][1,4]oxazin-7-yl)amino)-2-oxo-1,2-dihydropyridine-3-carboxamide], `Cc1c(Nc2cc[nH]c(=O)c2C(=O)Nc2ccc(N3CCN(C(=O)C(C)(C)C)CC3)cc2)cnc2c1NCCO2` [Example 341, 4-((8-methyl-2,3-dihydro-1H-pyrido[2,3-b][1,4]oxazin-7-yl)amino)-2-oxo-N-(4-(4-pivaloylpiperazin-1-yl)phenyl)-1,2-dihydropyridine-3-carboxamide] is lower in IC50: 100 to 1000 nM for the first, no more than 10 nM for the second.

`CCC(C)C(=O)N1CCN(c2ccc(NC(=O)c3c(Nc4cnc5c(c4C)NCCO5)cc[nH]c3=O)cc2)CC1` (stereo not drawn) [Example 333, 4-((8-methyl-2,3-dihydro-1H-pyrido[2,3-b][1,4]oxazin-7-yl)amino)-N-(4-(4-(2-methylbutanoyl)piperazin-1-yl)phenyl)-2-oxo-1,2-dihydropyridine-3-carboxamide] and `Cc1c(Nc2cc[nH]c(=O)c2C(=O)Nc2ccc(N3CCN(C(=O)C(C)(C)F)CC3)cc2)cnc2c1NCCO2` [Example 342, N-(4-(4-(2-fluoro-2-methylpropanoyl)piperazin-1-yl)phenyl)-4-((8-methyl-2,3-dihydro-1H-pyrido[2,3-b][1,4]oxazin-7-yl)amino)-2-oxo-1,2-dihydropyridine-3-carboxamide] cannot be ordered by IC50: no more than 10 nM for the first, no more than 10 nM for the second.

`Cc1c(Nc2cc[nH]c(=O)c2C(=O)Nc2ccc(N3CCN(C(=O)C4C(C)(C)C4(C)C)CC3)cc2)cnc2c1NCCO2` [Example 334, 4-((8-methyl-2,3-dihydro-1H-pyrido[2,3-b][1,4]oxazin-7-yl)amino)-2-oxo-N-(4-(4-(2,2,3,3-tetramethylcyclopropane-1-carbonyl)piperazin-1-yl)phenyl)-1,2-dihydropyridine-3-carboxamide] and `COC(C)(C)C(=O)N1CCN(c2ccc(NC(=O)c3c(Nc4cnc5c(c4C)NCCO5)cc[nH]c3=O)cc2)CC1` [Example 344, N-(4-(4-(2-methoxy-2-methylpropanoyl)piperazin-1-yl)phenyl)-4-((8-methyl-2,3-dihydro-1H-pyrido[2,3-b][1,4]oxazin-7-yl)amino)-2-oxo-1,2-dihydropyridine-3-carboxamide] cannot be ordered by IC50: no more than 10 nM for the first, no more than 10 nM for the second.

`Cc1c(Nc2cc[nH]c(=O)c2C(=O)Nc2ccc(N3CCN(c4ccn(C)n4)CC3)cc2)cnc2c1NCCO2` [Example 336, N-(4-(4-(1-methyl-1H-pyrazol-3-yl)piperazin-1-yl)phenyl)-4-((8-methyl-2,3-dihydro-1H-pyrido[2,3-b][1,4]oxazin-7-yl)amino)-2-oxo-1,2-dihydropyridine-3-carboxamide] and `Cc1c(Nc2cc[nH]c(=O)c2C(=O)Nc2ccc(N3CCN(c4ncn(C)n4)CC3)cc2)cnc2c1NCCO2` [Example 339, N-(4-(4-(1-methyl-1H-1,2,4-triazol-3-yl)piperazin-1-yl)phenyl)-4-((8-methyl-2,3-dihydro-1H-pyrido[2,3-b][1,4]oxazin-7-yl)amino)-2-oxo-1,2-dihydropyridine-3-carboxamide] cannot be ordered by IC50: no more than 10 nM for the first, no more than 10 nM for the second.

`Cc1ncccc1N1CCN(c2ccc(NC(=O)c3c(Nc4cnc5c(c4C)NCCO5)cc[nH]c3=O)cc2)CC1` [Example 337, 4-((8-methyl-2,3-dihydro-1H-pyrido[2,3-b][1,4]oxazin-7-yl)amino)-N-(4-(4-(2-methylpyridin-3-yl)piperazin-1-yl)phenyl)-2-oxo-1,2-dihydropyridine-3-carboxamide] and `Cc1cc(N2CCN(c3ccc(NC(=O)c4c(Nc5cnc6c(c5C)NCCO6)cc[nH]c4=O)cc3)CC2)ccn1` [Example 340, 4-((8-methyl-2,3-dihydro-1H-pyrido[2,3-b][1,4]oxazin-7-yl)amino)-N-(4-(4-(2-methylpyridin-4-yl)piperazin-1-yl)phenyl)-2-oxo-1,2-dihydropyridine-3-carboxamide] cannot be ordered by IC50: no more than 10 nM for the first, no more than 10 nM for the second.

`Cc1c(Nc2cc[nH]c(=O)c2C(=O)Nc2ccc(N3CCN(c4cncnc4)CC3)cc2)cnc2c1NCCO2` [Example 338, 4-((8-methyl-2,3-dihydro-1H-pyrido[2,3-b][1,4]oxazin-7-yl)amino)-2-oxo-N-(4-(4-(pyrimidin-5-yl)piperazin-1-yl)phenyl)-1,2-dihydropyridine-3-carboxamide] and `Cc1c(Nc2cc[nH]c(=O)c2C(=O)Nc2ccc(N3CCN(C(=O)C(C)C)[C@@H](C)C3)cc2)cnc2c1NCCO2` [Example 343, (S)-N-(4-(4-isobutyryl-3-methylpiperazin-1-yl)phenyl)-4-((8-methyl-2,3-dihydro-1H-pyrido[2,3-b][1,4]oxazin-7-yl)amino)-2-oxo-1,2-dihydropyridine-3-carboxamide] cannot be ordered by IC50: 10 to 100 nM for the first, no more than 10 nM for the second.
